Test results as given in patent US20240207318A1, “CHIMERIC COSTIMULATORY RECEPTORS, CHEMOKINE RECEPTORS, AND THE USE OF SAME IN CELLULAR IMMUNOTHERAPIES” (Iovance Biotherapeutics, Inc., priority 2021, published 2024).
Entries after “also recorded” stand apart in the source; their conditions may differ.

Key:
TILs [1] = assay: Expansion and viability of TILs treated with drug during ex vivo 22-day expansion; type: cell-based, human; settings: ipatasertib 0.3 or 1 μM, pre-REP and REP or REP only, relative to controls
Experimental: Patient tumors from different indications were received, fragmented, and subjected to an expansion protocol for TIL manufacturing. Different doses (0.3 μM and 1 μM) of the pan-AKT inhibitor ipatasertib were added to the culture during ex vivo expansion. The expansion potential, as well as the phenotypic and functional characteristics were evaluated on the final TIL product. Eight tumors, including tumors from melanoma, NSCLC, head and neck cancer, ovarian cancer, and breast cancer, were used in combination with the Gen 2 process.
Expansion, viability and T cell distribution in control and AKT inhibitor-treated TILs are shown. TILs were left untreated or treated with increasing concentrations of the pan-AKT inhibitor ipatasertib. Treatment was added either during the pre-REP and REP (blue bars) or during the REP stage only (purple bars). Fold expansion and viability of TIL at the end of the 22-day expansion process are shown. Frequency of CD8^+, CD4^+ and CD4^+ (Foxp3^+) cells after the expansion process on cryopreserved cells are also shown.
In this example, the use of decitabine, a DNA hypomethylation agent, in culture as an epigenetic modifier of TIL products was explored. […] Patient tumors (N=8) from different tumor types (non-small cell lung, head and neck, ovarian, and breast cancers) were obtained from donors, fragmented, and subjected to a 22-day expansion protocol for TIL generation. Different doses (10 nM, 30 nM, and 100 nM) of decitabine were added to the culture during ex vivo expansion either during the pre-REP and REP stages or during REP only. The expansion potential as well as the phenotypic and functional characteristics of TILs were evaluated in the final TIL product.
TILs were left untreated (CTRL, gray bars) or treated with increasing concentrations of decitabine. Treatment was added either during the REP stage only (blue bars) or during both pre-REP and REP (green bars).

TILs [2] = assay: Cytokine expression of drug-treated TILs after overnight anti-CD3/CD28 bead stimulation; type: cell-based, human
TILs [3] = assay: Flow cytometry phenotype of drug-treated TILs (T-cell subsets, surface markers, transcription factors); type: cell-based, human
PD-L1 = target: T1, PD-L1 (human, UniProt Q9NZQ7 19-290, limits assumed); assay: characterization of the anti-PD-L1 antibody clone; EC50 assay method not given
T1 construct: also called hPD-L1; CD274

[4] = AKT inhibition during expansion

T1 sequence (Q9NZQ7 19-290 limits assumed): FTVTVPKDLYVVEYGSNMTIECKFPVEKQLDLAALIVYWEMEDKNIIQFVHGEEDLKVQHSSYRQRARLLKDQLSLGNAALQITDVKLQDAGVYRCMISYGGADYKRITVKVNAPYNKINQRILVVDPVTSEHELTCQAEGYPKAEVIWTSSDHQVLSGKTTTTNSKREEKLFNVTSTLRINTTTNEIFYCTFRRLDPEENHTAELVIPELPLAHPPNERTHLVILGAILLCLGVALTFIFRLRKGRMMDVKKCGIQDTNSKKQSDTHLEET

EC50 (PD-L1) | Molecule | TIL expansion (fold expansion) (TILs [1]) | TIL viability (TILs [1]) | TIL expansion (fold expansion) (TILs [1]; listed as AKT inhibitor) | TIL viability (TILs [1]; listed as AKT inhibitor) | cytokine output following stimulation (TILs [2]; 1 μM ipatasertib at pre-REP and REP, anti-CD3/CD28 beads 1:5 overnight) | frequency of IFNγ+ TNFα+ CD8+ T cells (TILs [2]; AKT inhibitor treatment) | IL-7R and CXCR3 expression on CD8+ TILs (TILs [3]; [4]) | frequency of CD8+ TEMRA cells (TILs [3]; [4]) | population of less differentiated CD39-CD69- cells (TILs [3]; AKT inhibitor during expansion, relative to controls) | TOX expression following stimulation (TILs [3]; AKT inhibitor-treated TILs) | expression of CD38 and transcription factors T-bet and TOX (TILs [3]; CD39-CD69- cells, AKT inhibitor 1 μM) | T cell ratios (CD8+, CD4+, CD4+ Foxp3+) (TILs [3]; ipatasertib-treated TILs after expansion)
– | CC(C)NC[C@@H](C(=O)N1CCN(c2ncnc3c2[C@H](C)C[C@H]3O)CC1)c1ccc(Cl)cc1 [ipatasertib] | maintains | maintains | equivalent | equivalent | higher cytokine output | increase | increase | increase | increases; also recorded: doubled | lower TOX expression | reduced expression | without affecting T cell ratios
0.125 nM | anti-PD-L1 antibody clone 19H9-IgG4-Flag (antibody) QVQLQESGGGLVKPGGSLRLSCAASGFTFSSYSMNWVRQAPGKGLEWVSGINTAGDTHYPESVKGRFTISRDNARNSLNLQMNSLRAEDTAVYYCVRERVEREYSGYDAFDIWGQGTTVTVSAGGGGSGGGGSGGGGSGAPNFMLTQPHSVSESLGKTVTISCTGSSGSIARKFVQWYQQRPGSSPTTVIYENNQRPSGVSDRFSGSIGSSSNSASLTISGLKTEDEADYYCQSYDSSNVVFGGGTKVTVL | – | – | – | – | – | – | – | – | – | – | – | –
0.404 nM | anti-PD-L1 antibody clone 38A1-IgG4-HA (antibody) EVQLVESGGGLVQPGGSLRLSCAASGFTFSNYAMSWVRQAPGKGLEWVSTISGSGGTTYYADSVKGRFTISRDNSKNTLYLQMNSLRVEDTAVYYCAKDWFRSSSPDAFDIWGQGTTVTVSAGGGGSGGGGSGGGGSGAPSYVLTQPPSVSVAPGQTARITCGGNNIGRKIVHWYQQRPGQAPVLVIYYDTDRPAGIPERFSGSNSGNMATLTISTVGAGDEADYYCQVWDTGSDHVVFGGGTKLTVL | – | – | – | – | – | – | – | – | – | – | – | –
